Experiments:
Assay in all cases: radiometric filter-binding kinase assay, Kinase HotSpot
Conditions in all cases: compound 0.5 µM; ATP 10 µM
[1] = target: CDK1 CCNA2 (human) (UniProt P06493+P20248)
[2] = target: CDK1 CCNB1 (human) (UniProt P06493+P14635)
[3] = target: CDK2 CCNA2 (human) (UniProt P24941+P20248)
[4] = target: CDK2 CCNE1 (human) (UniProt P24941+P24864)
[5] = target: CDK3 CCNE1 (human) (UniProt Q00526+P24864)
[6] = target: CDK4 CCND1 (human) (UniProt P24385+P11802)
[7] = target: CDK4 CCND3 (human) (UniProt P30281+P11802)
[8] = target: CDK5 CDK5R1 p25 (human) (UniProt Q00535+Q15078)
[9] = target: CDK5 CDK5R1 p35 (human) (UniProt Q00535+Q15078)
[10] = target: CDK6 CCND1 (human) (UniProt Q00534+P24385)
[11] = target: CDK6 CCND3 (human) (UniProt P30281+Q00534)
[12] = target: CDK7 CCNH MNAT1 (human) (UniProt P50613+P51948+P51946)
[13] = target: CDK9 CCNK (human) (UniProt O75909+P50750)
[14] = target: CDK9 CCNT1 (human) (UniProt P50750+O60563)
[15] = target: DYRK1B (human) (UniProt Q9Y463)
[16] = target: LTK (human) (UniProt P29376)
[17] = target: MAP3K7 TAB1 (human) (UniProt O43318+Q15750)
[18] = target: PRKCH (human) (UniProt P24723)
[19] = target: STK33 (human) (UniProt Q9BYT3)
[20] = target: AURKB (human) (UniProt Q96GD4)
[21] = target: AURKC (human) (UniProt Q9UQB9)
[22] = target: FLT3 (human) (UniProt P36888)
[23] = target: NEK6 (human) (UniProt Q9HC98)
[24] = target: NEK7 (human) (UniProt Q8TDX7)
[25] = system: ARAF (human), P10398 [Y301D/Y302D]

LTK (human), sequence (P29376 whole entry, looked up): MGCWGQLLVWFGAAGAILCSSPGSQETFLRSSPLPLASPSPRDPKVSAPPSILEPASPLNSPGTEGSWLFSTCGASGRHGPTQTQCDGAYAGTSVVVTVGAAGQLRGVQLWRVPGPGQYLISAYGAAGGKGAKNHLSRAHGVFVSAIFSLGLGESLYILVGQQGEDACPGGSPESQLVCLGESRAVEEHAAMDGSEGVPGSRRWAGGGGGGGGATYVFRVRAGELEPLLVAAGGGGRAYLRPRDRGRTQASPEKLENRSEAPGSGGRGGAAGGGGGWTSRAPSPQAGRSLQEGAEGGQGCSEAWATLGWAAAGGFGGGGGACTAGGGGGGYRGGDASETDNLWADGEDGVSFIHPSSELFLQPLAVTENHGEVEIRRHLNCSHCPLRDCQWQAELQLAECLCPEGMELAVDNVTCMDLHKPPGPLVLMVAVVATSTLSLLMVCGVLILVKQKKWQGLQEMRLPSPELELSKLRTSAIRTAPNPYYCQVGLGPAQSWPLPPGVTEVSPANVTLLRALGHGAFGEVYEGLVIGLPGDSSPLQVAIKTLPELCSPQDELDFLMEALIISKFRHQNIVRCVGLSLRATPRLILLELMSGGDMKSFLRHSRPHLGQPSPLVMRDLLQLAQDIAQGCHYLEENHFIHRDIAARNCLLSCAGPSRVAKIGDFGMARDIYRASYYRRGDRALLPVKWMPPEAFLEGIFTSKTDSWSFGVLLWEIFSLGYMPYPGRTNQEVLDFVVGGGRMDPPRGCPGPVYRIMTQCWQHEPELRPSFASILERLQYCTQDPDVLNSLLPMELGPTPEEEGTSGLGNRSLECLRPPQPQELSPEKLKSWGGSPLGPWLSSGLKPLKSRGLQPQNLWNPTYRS
CDK1 CCNB1 (human), sequence (P06493 whole entry, looked up): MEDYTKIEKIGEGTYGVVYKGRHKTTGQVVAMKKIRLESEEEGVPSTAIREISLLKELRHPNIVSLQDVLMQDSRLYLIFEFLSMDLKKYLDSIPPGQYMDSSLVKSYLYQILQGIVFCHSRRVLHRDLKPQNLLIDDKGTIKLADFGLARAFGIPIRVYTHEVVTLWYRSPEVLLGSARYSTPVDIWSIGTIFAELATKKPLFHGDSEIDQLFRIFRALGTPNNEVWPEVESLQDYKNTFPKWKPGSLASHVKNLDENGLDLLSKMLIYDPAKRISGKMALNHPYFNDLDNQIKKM
CDK1 CCNB1 (human), sequence (P14635 whole entry, looked up): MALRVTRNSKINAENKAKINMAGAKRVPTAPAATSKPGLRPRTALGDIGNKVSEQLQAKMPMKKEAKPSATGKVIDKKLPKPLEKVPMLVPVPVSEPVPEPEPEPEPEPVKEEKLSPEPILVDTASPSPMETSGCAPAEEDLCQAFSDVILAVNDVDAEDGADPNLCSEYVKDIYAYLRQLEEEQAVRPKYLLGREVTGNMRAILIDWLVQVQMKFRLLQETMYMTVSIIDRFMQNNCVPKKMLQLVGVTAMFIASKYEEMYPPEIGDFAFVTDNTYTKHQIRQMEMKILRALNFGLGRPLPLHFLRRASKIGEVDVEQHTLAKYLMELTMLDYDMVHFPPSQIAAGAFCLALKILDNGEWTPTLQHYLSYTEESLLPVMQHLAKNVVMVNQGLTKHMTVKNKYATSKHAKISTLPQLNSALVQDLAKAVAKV
CDK1 CCNA2 (human), sequence (P06493 whole entry, looked up): as the sequence (P06493 whole entry, looked up) above
CDK1 CCNA2 (human), sequence (P20248 whole entry, looked up): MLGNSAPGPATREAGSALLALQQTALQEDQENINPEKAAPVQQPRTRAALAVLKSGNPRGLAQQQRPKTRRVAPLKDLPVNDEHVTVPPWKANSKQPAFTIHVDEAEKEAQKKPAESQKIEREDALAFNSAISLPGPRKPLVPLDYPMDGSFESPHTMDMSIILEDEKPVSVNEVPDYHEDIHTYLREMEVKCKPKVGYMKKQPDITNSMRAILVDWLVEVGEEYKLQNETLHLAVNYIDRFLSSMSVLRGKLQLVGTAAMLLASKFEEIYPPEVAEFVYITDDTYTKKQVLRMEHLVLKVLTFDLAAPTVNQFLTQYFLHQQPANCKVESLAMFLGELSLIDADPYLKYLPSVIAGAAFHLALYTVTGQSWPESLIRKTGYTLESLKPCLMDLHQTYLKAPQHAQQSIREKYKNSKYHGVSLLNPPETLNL
CDK2 CCNE1 (human), sequence (P24864 whole entry, looked up, other chains not shown): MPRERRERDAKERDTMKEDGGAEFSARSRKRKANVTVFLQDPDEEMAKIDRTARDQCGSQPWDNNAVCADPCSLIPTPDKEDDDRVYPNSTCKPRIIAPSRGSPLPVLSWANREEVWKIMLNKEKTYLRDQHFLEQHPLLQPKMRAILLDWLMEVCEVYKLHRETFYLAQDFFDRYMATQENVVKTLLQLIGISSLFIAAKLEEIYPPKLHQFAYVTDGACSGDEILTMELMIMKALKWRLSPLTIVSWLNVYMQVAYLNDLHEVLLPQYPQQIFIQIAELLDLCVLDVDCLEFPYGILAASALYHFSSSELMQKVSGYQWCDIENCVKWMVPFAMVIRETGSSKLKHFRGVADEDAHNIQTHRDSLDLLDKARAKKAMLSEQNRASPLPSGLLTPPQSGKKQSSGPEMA
CDK3 CCNE1 (human), sequence (P24864 whole entry, looked up): as the sequence (P24864 whole entry, looked up, other chains not shown) above
CDK3 CCNE1 (human), sequence (Q00526 whole entry, looked up): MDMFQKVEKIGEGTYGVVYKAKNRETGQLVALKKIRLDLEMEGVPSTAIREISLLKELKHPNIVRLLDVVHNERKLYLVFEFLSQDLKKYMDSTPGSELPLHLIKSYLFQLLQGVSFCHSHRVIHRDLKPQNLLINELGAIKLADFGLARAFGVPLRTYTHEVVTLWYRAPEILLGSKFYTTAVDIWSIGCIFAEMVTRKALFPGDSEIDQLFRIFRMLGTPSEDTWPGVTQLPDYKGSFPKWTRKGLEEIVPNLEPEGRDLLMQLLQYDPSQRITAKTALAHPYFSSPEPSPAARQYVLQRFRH
PRKCH (human), sequence (P24723 whole entry, looked up): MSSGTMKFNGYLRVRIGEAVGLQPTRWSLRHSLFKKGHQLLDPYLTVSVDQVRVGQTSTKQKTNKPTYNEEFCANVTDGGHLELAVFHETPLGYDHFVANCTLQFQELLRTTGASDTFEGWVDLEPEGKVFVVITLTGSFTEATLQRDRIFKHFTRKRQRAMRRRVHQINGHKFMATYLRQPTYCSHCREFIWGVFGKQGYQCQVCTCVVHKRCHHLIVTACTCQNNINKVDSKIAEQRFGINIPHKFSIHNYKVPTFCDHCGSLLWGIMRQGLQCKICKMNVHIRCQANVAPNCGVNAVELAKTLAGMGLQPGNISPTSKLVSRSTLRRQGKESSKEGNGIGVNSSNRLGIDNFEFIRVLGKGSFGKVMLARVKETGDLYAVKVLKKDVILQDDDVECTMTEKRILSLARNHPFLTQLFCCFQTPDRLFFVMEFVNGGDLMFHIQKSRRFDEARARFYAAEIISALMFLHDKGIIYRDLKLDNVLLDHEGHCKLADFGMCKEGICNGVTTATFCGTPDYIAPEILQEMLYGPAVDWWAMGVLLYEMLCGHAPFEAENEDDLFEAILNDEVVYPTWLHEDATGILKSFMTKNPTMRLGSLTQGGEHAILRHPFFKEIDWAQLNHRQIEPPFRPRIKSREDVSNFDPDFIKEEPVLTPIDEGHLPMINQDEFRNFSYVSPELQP
MAP3K7 TAB1 (human), sequence (O43318 whole entry, looked up): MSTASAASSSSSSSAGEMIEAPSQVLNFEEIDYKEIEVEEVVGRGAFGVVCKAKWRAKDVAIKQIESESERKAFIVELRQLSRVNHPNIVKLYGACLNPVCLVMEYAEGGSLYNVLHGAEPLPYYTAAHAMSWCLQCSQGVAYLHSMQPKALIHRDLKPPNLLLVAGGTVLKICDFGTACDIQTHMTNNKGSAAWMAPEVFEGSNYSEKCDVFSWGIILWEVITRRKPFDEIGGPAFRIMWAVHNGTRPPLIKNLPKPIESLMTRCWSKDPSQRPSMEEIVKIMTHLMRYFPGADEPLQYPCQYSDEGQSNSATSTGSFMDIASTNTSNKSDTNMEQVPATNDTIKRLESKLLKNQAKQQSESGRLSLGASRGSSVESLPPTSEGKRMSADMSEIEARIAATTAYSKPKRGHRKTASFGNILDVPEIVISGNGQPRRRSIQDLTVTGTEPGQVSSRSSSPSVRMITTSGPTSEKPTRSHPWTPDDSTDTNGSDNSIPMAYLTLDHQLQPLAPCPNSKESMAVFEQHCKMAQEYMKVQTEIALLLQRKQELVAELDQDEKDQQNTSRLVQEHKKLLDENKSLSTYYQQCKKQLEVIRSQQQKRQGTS
MAP3K7 TAB1 (human), sequence (Q15750 whole entry, looked up): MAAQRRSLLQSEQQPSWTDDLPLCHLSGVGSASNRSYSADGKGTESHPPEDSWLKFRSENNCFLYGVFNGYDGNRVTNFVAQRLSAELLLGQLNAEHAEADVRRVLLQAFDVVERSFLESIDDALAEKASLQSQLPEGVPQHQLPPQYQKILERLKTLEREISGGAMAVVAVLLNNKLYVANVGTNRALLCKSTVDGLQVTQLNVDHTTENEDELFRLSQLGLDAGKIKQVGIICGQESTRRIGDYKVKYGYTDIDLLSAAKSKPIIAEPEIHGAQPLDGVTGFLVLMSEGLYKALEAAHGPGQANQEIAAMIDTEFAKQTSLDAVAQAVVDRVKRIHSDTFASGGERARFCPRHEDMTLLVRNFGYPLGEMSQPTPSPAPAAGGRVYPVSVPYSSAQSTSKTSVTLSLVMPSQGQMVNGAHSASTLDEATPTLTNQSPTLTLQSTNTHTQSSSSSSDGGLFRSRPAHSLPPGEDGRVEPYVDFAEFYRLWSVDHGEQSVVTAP
CDK2 CCNA2 (human), sequence (P20248 whole entry, looked up, other chains not shown): as the sequence (P20248 whole entry, looked up) above

Row | Structure (SMILES) | residual activity [1] | residual activity [2] | residual activity [3] | residual activity [4] | residual activity [5] | residual activity [6] | residual activity [7] | residual activity [8] | residual activity [9] | residual activity [10] | residual activity [11] | residual activity [12] | residual activity [13] | residual activity [14] | residual activity [15] | residual activity [16] | residual activity [17] | residual activity [18] | residual activity [19] | also measured
1 | NC(=O)c1ccc(-c2nc(-c3ccccn3)c(-c3ccc4c(c3)OCCO4)[nH]2)cc1 | 97.1% | 83.9% | 95% | 93.5% | 99.4% | 84% | 94.1% | 91% | 98% | 106% | 104% | 97.6% | 97.1% | 96.8% | 100% | 93.5% | 104% | 83.3% | 98.3% | 
2 | Cc1cc(Nc2cc(N3CCN(C)CC3)nc(Sc3ccc(NC(=O)C4CC4)cc3)n2)[nH]n1 | 99.1% | 102% | 87.8% | 94.4% | 95.3% | 97.4% | 99.2% | 93.8% | 100% | 95.2% | 121% | 101% | 102% | 93.1% | 98.8% | 84.2% | 90.7% | 111% | 90.1% | residual activity [20]: 4.89%; residual activity [21]: 40.4%; residual activity [22]: 6.67%
3 | CCOc1nc(NC(=O)Cc2cc(OC)ccc2OC)cc(N)c1C#N | 92.2% | 108% | 104% | 88.9% | 97.7% | 97.6% | 95.2% | 96.8% | 105% | 95.2% | 98.6% | 103% | 89.2% | 100% | 99.2% | 97.3% | 96.6% | 94.3% | 97.7% | 
4 | O=C1Nc2ccc3ncsc3c2/C1=C/c1c[nH]cn1 |  |  |  |  |  |  |  |  |  |  |  |  |  |  | 11.3% | 83% |  | 41.2% | 35.7% | residual activity [23]: 93.2%; residual activity [24]: 79.6%
5 | COC(=O)[C@]1(O)C[C@@H]2O[C@@]1(C)n1c3ccccc3c3c4c(c5c6ccccc6n2c5c31)C(=O)NC4 |  |  |  |  |  |  |  |  |  |  |  |  |  |  | 3.88% | 9.78% |  | 20.5% | 12.5% | 
6 | COc1cc2ncnc(N3CCN(C(=O)Nc4ccc(Oc5ccccc5)cc4)CC3)c2cc1OC |  |  |  |  |  |  |  |  |  |  |  |  |  |  |  |  |  |  |  | residual activity [25]: 105%

Reference: the kinase profiling compilation of Christmann-Franck et al. (2016)
